Measured values reported in PubChem BioAssay (NCI).
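Assay format: 96-well plates, 48-hour exposure. GI50 = concentration required for 50% inhibition of growth. At the TGI there is no net growth.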

What was measured:
Test in all cases: growth of human tumour cells (NCI), 48 h
CAKI-1 renal = test system: CAKI-1 renal
NCI-H226 lung = test system: NCI-H226 lung
MCF7 breast = test system: MCF7 breast
ACHN renal = test system: ACHN renal
KM12 colon = test system: KM12 colon
RXF 393 renal = test system: RXF 393 renal
SW-620 colon = test system: SW-620 colon
DU-145 prostate = test system: DU-145 prostate
M14 melanoma = test system: M14 melanoma
EKVX NSCLC = test system: EKVX NSCLC
SK-OV-3 ovarian = test system: SK-OV-3 ovarian
MOLT-4 leukemia = test system: MOLT-4 leukemia
HOP-92 NSCLC = test system: HOP-92 NSCLC
NCI-H23 lung = test system: NCI-H23 lung
SF-295 CNS = test system: SF-295 CNS
HT29 colon = test system: HT29 colon
PC-3 prostate = test system: PC-3 prostate
UACC-257 melanoma = test system: UACC-257 melanoma
CCRF-CEM leukemia = test system: CCRF-CEM leukemia
HCT-15 colon = test system: HCT-15 colon
COLO 205 colon = test system: COLO 205 colon
786-0 renal = test system: 786-0 renal
MDA-MB-435 = test system: MDA-MB-435
HL-60(TB) leukemia = test system: HL-60(TB) leukemia
A498 renal = test system: A498 renal
OVCAR-5 ovarian = test system: OVCAR-5 ovarian
MALME-3M melanoma = test system: MALME-3M melanoma
UACC-62 melanoma = test system: UACC-62 melanoma
SN12C renal = test system: SN12C renal
LOX IMVI melanoma = test system: LOX IMVI melanoma
NCI-H460 lung = test system: NCI-H460 lung
U251 CNS = test system: U251 CNS
T-47D breast = test system: T-47D breast
SNB-75 CNS = test system: SNB-75 CNS
K-562 leukemia = test system: K-562 leukemia
IGROV1 ovarian = test system: IGROV1 ovarian
HS 578T breast = test system: HS 578T breast
HOP-62 NSCLC = test system: HOP-62 NSCLC
SK-MEL-5 melanoma = test system: SK-MEL-5 melanoma
SR leukemia = test system: SR leukemia
HCT-116 colon = test system: HCT-116 colon
TK-10 renal = test system: TK-10 renal
SK-MEL-28 melanoma = test system: SK-MEL-28 melanoma
OVCAR-3 ovarian = test system: OVCAR-3 ovarian
NCI-H522 lung = test system: NCI-H522 lung
SK-MEL-2 melanoma = test system: SK-MEL-2 melanoma
A549 NSCLC = test system: A549 NSCLC
BT-549 breast = test system: BT-549 breast
SF-539 CNS = test system: SF-539 CNS
UO-31 renal = test system: UO-31 renal
SF-268 CNS = test system: SF-268 CNS
RPMI-8226 leukemia = test system: RPMI-8226 leukemia
OVCAR-4 ovarian = test system: OVCAR-4 ovarian
SNB-19 CNS = test system: SNB-19 CNS
OVCAR-8 ovarian = test system: OVCAR-8 ovarian
NCI/ADR-RES ovarian = test system: NCI/ADR-RES ovarian
HCC-2998 colon = test system: HCC-2998 colon
MDA-MB-231 breast = test system: MDA-MB-231 breast

Structure (SMILES): CC(C)(C)c1ccc2c(c1)CNCCNCCNCc1cc(C(C)(C)C)ccc1OCC1(CO2)COc2ccc(C(C)(C)C)cc2CNCCNCCNCc2cc(C(C)(C)C)ccc2OC1
- TGI (CAKI-1 renal): 3.17 µM
- TGI (NCI-H226 lung): 1.97 µM
- TGI (MCF7 breast): 0.379 µM
- TGI (ACHN renal): 2.83 µM
- TGI (KM12 colon): 0.562 µM
- TGI (RXF 393 renal): 3.74 µM
- TGI (SW-620 colon): 1.33 µM
- TGI (DU-145 prostate): 2.83 µM
- TGI (M14 melanoma): 1.83 µM

Structure (SMILES): CCN(CC)Cc1cc(Nc2ccnc3cc(Cl)ccc23)cc(-c2ccc(Cl)cc2)c1O
- GI50 (CAKI-1 renal): 0.907 µM
- TGI (CAKI-1 renal): > 100 µM
- GI50 (EKVX NSCLC): 0.879 µM
- TGI (EKVX NSCLC): > 100 µM
- GI50 (SK-OV-3 ovarian): 3.89 µM
- TGI (SK-OV-3 ovarian): > 100 µM
- GI50 (MOLT-4 leukemia): 0.485 µM
- TGI (MOLT-4 leukemia): > 100 µM
- GI50 (HOP-92 NSCLC): 0.434 µM
- TGI (HOP-92 NSCLC): 3.2 µM
- GI50 (NCI-H23 lung): 0.704 µM
- TGI (NCI-H23 lung): > 100 µM
- GI50 (KM12 colon): 3.08 µM
- TGI (KM12 colon): > 100 µM
- GI50 (SF-295 CNS): 1.39 µM
- TGI (SF-295 CNS): > 100 µM
- GI50 (SW-620 colon): 0.628 µM
- TGI (SW-620 colon): > 100 µM
- GI50 (HT29 colon): 1.88 µM
- TGI (HT29 colon): > 100 µM
- GI50 (PC-3 prostate): 0.771 µM
- TGI (PC-3 prostate): > 100 µM
- GI50 (UACC-257 melanoma): 1.29 µM
- TGI (UACC-257 melanoma): 4.85 µM
- GI50 (CCRF-CEM leukemia): 0.999 µM
- TGI (CCRF-CEM leukemia): > 100 µM
- GI50 (HCT-15 colon): 0.577 µM
- TGI (HCT-15 colon): > 100 µM
- GI50 (COLO 205 colon): 3.05 µM
- TGI (COLO 205 colon): > 100 µM
- GI50 (786-0 renal): 1.84 µM
- TGI (786-0 renal): > 100 µM
- GI50 (MDA-MB-435): 0.989 µM
- TGI (MDA-MB-435): > 100 µM

Structure (SMILES): COc1ccc2[nH]cc(/C=C3/C(=O)Nc4ccc(Cl)cc43)c2c1
- GI50 (MOLT-4 leukemia): > 100 µM
- TGI (MOLT-4 leukemia): > 100 µM
- GI50 (HL-60(TB) leukemia): > 100 µM
- TGI (HL-60(TB) leukemia): > 100 µM
- GI50 (KM12 colon): 0.352 µM
- TGI (KM12 colon): > 100 µM
- GI50 (CCRF-CEM leukemia): 5.97 µM
- TGI (CCRF-CEM leukemia): > 100 µM
- GI50 (A498 renal): > 100 µM
- TGI (A498 renal): > 100 µM
- GI50 (OVCAR-5 ovarian): > 100 µM
- TGI (OVCAR-5 ovarian): > 100 µM

Structure (SMILES): COc1ccc(Nc2nc(N)c(C(=O)c3ccccc3)s2)cc1
- TGI (CAKI-1 renal): 33.3 µM
- TGI (MALME-3M melanoma): > 100 µM
- TGI (UACC-62 melanoma): > 100 µM
- TGI (SN12C renal): 66.3 µM
- TGI (LOX IMVI melanoma): > 100 µM
- TGI (NCI-H460 lung): 19.9 µM
- TGI (EKVX NSCLC): 58.2 µM
- TGI (SK-OV-3 ovarian): > 100 µM
- TGI (NCI-H226 lung): 29.5 µM
- TGI (MOLT-4 leukemia): > 61.7 µM
- TGI (U251 CNS): > 100 µM
- TGI (T-47D breast): > 100 µM
- TGI (SNB-75 CNS): 0.33 µM
- TGI (K-562 leukemia): > 100 µM
- TGI (HL-60(TB) leukemia): 0.271 µM
- TGI (HOP-92 NSCLC): > 92.7 µM
- TGI (NCI-H23 lung): > 60.3 µM
- TGI (IGROV1 ovarian): 37 µM
- TGI (MCF7 breast): > 100 µM
- TGI (HS 578T breast): 3.18 µM
- TGI (ACHN renal): > 100 µM
- TGI (HOP-62 NSCLC): > 100 µM
- TGI (KM12 colon): > 19.8 µM
- TGI (SK-MEL-5 melanoma): 4.01 µM
- TGI (SR leukemia): 14.5 µM
- TGI (HCT-116 colon): 3.38 µM
- TGI (SF-295 CNS): > 100 µM
- TGI (RXF 393 renal): 24.2 µM
- TGI (SW-620 colon): > 100 µM
- TGI (TK-10 renal): > 100 µM
- TGI (DU-145 prostate): > 72.8 µM
- TGI (SK-MEL-28 melanoma): > 100 µM
- TGI (OVCAR-3 ovarian): > 100 µM
- TGI (HT29 colon): 15.4 µM
- TGI (NCI-H522 lung): > 100 µM
- TGI (SK-MEL-2 melanoma): 32.2 µM
- TGI (PC-3 prostate): > 62.4 µM
- TGI (A549 NSCLC): > 74.5 µM
- TGI (UACC-257 melanoma): > 100 µM
- TGI (BT-549 breast): > 84.5 µM
- TGI (CCRF-CEM leukemia): > 80.6 µM
- TGI (SF-539 CNS): 0.0327 µM
- TGI (HCT-15 colon): 26.2 µM
- TGI (COLO 205 colon): 0.333 µM
- TGI (UO-31 renal): 44.2 µM
- TGI (SF-268 CNS): > 58.1 µM
- TGI (A498 renal): > 72.5 µM
- TGI (RPMI-8226 leukemia): 32.7 µM
- TGI (OVCAR-4 ovarian): > 60.8 µM
- TGI (OVCAR-5 ovarian): > 78.4 µM
- TGI (786-0 renal): 31.6 µM
- TGI (SNB-19 CNS): > 100 µM
- TGI (OVCAR-8 ovarian): > 100 µM
- TGI (MDA-MB-435): > 100 µM

Structure (SMILES): CN(C)CCCn1c(-c2cc(C(C)(C)C)c(O)c(C(C)(C)C)c2)csc1=Nc1ccccc1
- TGI (CAKI-1 renal): 52.4 µM
- TGI (UACC-62 melanoma): 4.62 µM
- TGI (SN12C renal): 6.15 µM
- TGI (NCI-H460 lung): 6.58 µM
- TGI (EKVX NSCLC): 4.26 µM
- TGI (SK-OV-3 ovarian): 3.94 µM
- TGI (NCI/ADR-RES ovarian): 3.45 µM
- TGI (NCI-H226 lung): 3.59 µM
- TGI (MOLT-4 leukemia): 0.547 µM
- TGI (SNB-75 CNS): 8.34 µM
- TGI (HL-60(TB) leukemia): 8.76 µM
- TGI (NCI-H23 lung): 3.73 µM
- TGI (ACHN renal): 9.14 µM
- TGI (HOP-62 NSCLC): 3.34 µM
- TGI (KM12 colon): 3.6 µM
- TGI (SF-295 CNS): 3.26 µM
- TGI (RXF 393 renal): 4.01 µM
- TGI (SW-620 colon): > 100 µM
- TGI (TK-10 renal): 5.45 µM
- TGI (SK-MEL-28 melanoma): 4.73 µM
- TGI (OVCAR-3 ovarian): 3.04 µM
- TGI (SK-MEL-2 melanoma): 8.51 µM
- TGI (PC-3 prostate): 3.58 µM
- TGI (A549 NSCLC): 3.46 µM
- TGI (UACC-257 melanoma): 3.39 µM
- TGI (BT-549 breast): 7.8 µM
- TGI (HCC-2998 colon): 3.65 µM
- TGI (SF-539 CNS): 3.38 µM
- TGI (HCT-15 colon): 9.05 µM
- TGI (SF-268 CNS): 3.95 µM
- TGI (M14 melanoma): 3.84 µM
- TGI (A498 renal): 6.94 µM
- TGI (OVCAR-5 ovarian): 4.19 µM
- TGI (MDA-MB-231 breast): 20.8 µM
- TGI (SNB-19 CNS): 4.52 µM
- TGI (MDA-MB-435): 5 µM
